Data from patent US20170087180A1, “METHODS AND COMPOSITIONS FOR TREATING NITRIC OXIDE DEFICIENCY DISORDERS AND RELATED CONDITIONS” (Sulfagenix, Inc., priority 2014, published 2017).

System: men with oligoasthenozoospermia
Test: placebo-controlled randomized study of SG1002 compared to resveratrol in men with oligoasthenozoospermia
Assay type: in vivo
Settings: SG1002 500 mg daily, resveratrol 50 mg daily, 54 men
Procedure: There was one placebo-controlled randomized study of SG1002,500 mg daily compared to resveratrol 50 mg daily in 54 men with oligoasthenozoospermia. Men treated with SG1002 had increased sperm concentration, motility and motile forms recovery compared to those treated with placebo. Resveratrol had no effect on any of these parameters. During the study, three men in the SG1002 arm withdrew: one due to excessive flatulence and nausea, one due to “smelly” sweating, and one for convenience.

Oc1ccc(C=Cc2cc(O)cc(O)c2)cc1 [Resveratrol, resveratrol]
no effect: motile forms recovery | sperm concentration | sperm motility
